# Data published in ChEMBL document CHEMBL5260833, “An overview of quinazolines: Pharmacological significance and recent developments” (Eur J Med Chem, 2018).
# System: Rattus norvegicus
# Assay: Anticonvulsant activity in ip dosed albino rat measured after 1 hrs
# Assay type: functional
# Conditions: not given
row,SMILES,Activity [%]
1,CC(=O)N1N=C(Nn2c(C)nc3ccccc3c2=O)CC1c1ccc(N(C)C)cc1 (stereo not given),50
2,COc1ccc(/C=C/C(=O)Nn2c(C)nc3ccc(Br)cc3c2=O)cc1,50
3,CC(=O)N1N=C(Nn2c(C)nc3ccccc3c2=O)CC1c1ccccc1 (stereo not given),50
4,Cc1nc2ccc(Br)cc2c(=O)n1NC(=O)/C=C/c1ccc(N(C)C)cc1,50
5,Cc1nc2ccccc2c(=O)n1NC(=O)/C=C/c1ccc(N(C)C)cc1,50
6,COc1ccc(C2CC(Nn3c(C)nc4ccccc4c3=O)=NO2)cc1 (stereo not given),50
7,Cc1nc2ccccc2c(=O)n1NC1=NOC(c2ccc(O)cc2)C1 (stereo not given),50
8,COc1ccc(/C=C/C(=O)Nn2c(C)nc3ccccc3c2=O)cc1,50
9,CC(=O)N1N=C(Nn2c(C)nc3ccc(Br)cc3c2=O)CC1c1ccccc1 (stereo not given),50
10,Cc1nc2ccc(Br)cc2c(=O)n1NC1=NOC(c2ccccc2)C1 (stereo not given),50
11,COc1cc(C2CC(Nn3c(C)nc4ccccc4c3=O)=NN2C(C)=O)ccc1O (stereo not given),50
12,Cc1nc2ccccc2c(=O)n1NC1=NOC(c2ccccc2)C1 (stereo not given),50
13,COc1cc(/C=C/C(=O)Nn2c(C)nc3ccc(Br)cc3c2=O)ccc1O,50
14,Cc1nc2ccccc2c(=O)n1NC(=O)/C=C/c1ccccc1,50
15,COc1cc(C2CC(Nn3c(C)nc4ccccc4c3=O)=NO2)ccc1O (stereo not given),50
16,Cc1nc2ccc(Br)cc2c(=O)n1NC1=NOC(c2ccc(N(C)C)cc2)C1 (stereo not given),50

row,SMILES,Activity [%]
1,CC(=O)N1N=C(Nn2c(C)nc3ccccc3c2=O)CC1c1ccc(O)cc1 (stereo not given),50
2,Cc1nc2ccccc2c(=O)n1NC(=O)/C=C/c1ccc(O)cc1,50
3,CC(=O)Nn1c(C)nc2ccccc2c1=O,50
4,Cc1nc2ccc(Br)cc2c(=O)n1NC(=O)/C=C/c1ccc(O)cc1,50
5,COc1cc(C2CC(Nn3c(C)nc4ccc(Br)cc4c3=O)=NN2C(C)=O)ccc1O (stereo not given),50
6,COc1ccc(C2CC(Nn3c(C)nc4ccccc4c3=O)=NN2C(C)=O)cc1 (stereo not given),50
7,Cc1nc2ccc(Br)cc2c(=O)n1NC(=O)/C=C/c1ccccc1,50
8,CC(=O)N1N=C(Nn2c(C)nc3ccc(Br)cc3c2=O)CC1c1ccc(O)cc1 (stereo not given),50
9,COc1ccc(C2CC(Nn3c(C)nc4ccc(Br)cc4c3=O)=NN2C(C)=O)cc1 (stereo not given),50
10,Cc1nc2ccccc2c(=O)n1NC1=NOC(c2ccc(N(C)C)cc2)C1 (stereo not given),50
11,COc1cc(/C=C/C(=O)Nn2c(C)nc3ccccc3c2=O)ccc1O,50
12,CC(=O)Nn1c(C)nc2ccc(Br)cc2c1=O,50
13,CC(=O)N1N=C(Nn2c(C)nc3ccc(Br)cc3c2=O)CC1c1ccc(N(C)C)cc1 (stereo not given),50
14,Cc1nc2ccc(Br)cc2c(=O)n1NC1=NOC(c2ccc(O)cc2)C1 (stereo not given),50
15,COc1cc(C2CC(Nn3c(C)nc4ccc(Br)cc4c3=O)=NO2)ccc1O (stereo not given),50
16,COc1ccc(C2CC(Nn3c(C)nc4ccc(Br)cc4c3=O)=NO2)cc1 (stereo not given),50

# System: Tobacco mosaic virus
# Assay: Antiviral activity against TMV at 500 microg/ml
# Assay type: functional
# Conditions: dose 500 µg/ml
row,SMILES,Activity [%]
1,Cc1nc2ccc(Br)cc2c(=O)n1/C=C/c1cccc(Cl)c1,54
2,Cc1nc2ccc(Br)cc2c(=O)n1/C=C/c1ccc(F)cc1,54
3,O=c1c2ccccc2nc(-c2ccccc2)n1/C=C/c1c(Cl)cccc1Cl,54
4,Cc1nc2ccc(Br)cc2c(=O)n1/C=C/c1cc(O)cc(Cl)c1,54
5,O=c1c2ccccc2nc(-c2ccccc2)n1/C=C/c1ccc(C(F)(F)F)cc1,54
6,COc1ccc(OC)c(/C=C/n2c(C)nc3ccc(Br)cc3c2=O)c1,54
7,Cc1nc2ccc(Br)cc2c(=O)n1/C=C/c1ccc(Cl)cc1Cl,54
8,O=c1c2ccccc2nc(-c2ccccc2)n1/C=C/c1cccc(Cl)c1Cl,54
9,O=c1c2ccccc2nc(-c2ccncc2)n1/C=C/c1ccccc1Cl,54
10,Cc1nc2ccc(Br)cc2c(=O)n1/C=C/c1c(Cl)cccc1Cl,54
11,COc1cccc(/C=C/n2c(C)nc3ccc(Br)cc3c2=O)c1OC,54
12,O=c1c2ccccc2nc(-c2ccncc2)n1/C=C/c1ccccc1,54
13,O=c1c2ccccc2nc(-c2ccncc2)n1/C=C/c1cccc(Cl)c1Cl,54
14,O=c1c2ccccc2nc(-c2ccncc2)n1/C=C/c1ccc(F)cc1,54
15,COc1ccc(/C=C/n2c(C)nc3ccc(Br)cc3c2=O)c(OC)c1,54
16,Cc1nc2ccc(Br)cc2c(=O)n1/C=C/c1ccccc1O,54
17,O=c1c2ccccc2nc(-c2ccccc2)n1/C=C/c1cccc(Cl)c1,54
18,Cc1nc2ccccc2c(=O)n1/C=C/c1cccc(Cl)c1Cl,54
19,O=c1c2ccccc2nc(-c2ccccc2)n1/C=C/c1ccc(Cl)c([N+](=O)[O-])c1,54
20,Cc1nc2ccc(Br)cc2c(=O)n1/C=C/c1ccc(F)c(F)c1,54
21,COc1ccc(/C=C/n2c(C)nc3ccc(Br)cc3c2=O)cc1OC,54
22,O=c1c2ccccc2nc(-c2ccccc2)n1/C=C/c1cc(Cl)cc(Cl)c1,54
23,Cc1nc2ccc(Br)cc2c(=O)n1/C=C/c1cccc(F)c1,54
24,O=c1c2ccccc2nc(-c2ccccc2)n1/C=C/c1ccc(F)c(F)c1,54
25,Cc1nc2ccc(Br)cc2c(=O)n1/C=C/c1cccc(C(F)(F)F)c1F,54
26,O=c1c2ccccc2nc(-c2ccccc2)n1/C=C/c1cccc(C(F)(F)F)c1,54
27,Cc1nc2ccc(Br)cc2c(=O)n1/C=C/c1ccccc1F,54
28,Cc1nc2ccc(Br)cc2c(=O)n1/C=C/c1ccccc1C(F)(F)F,54

# System: Rattus norvegicus
# Assay: Antiinflammatory activity in carrageenan induced rat at assessed as reduction in paw edema 50 mg/kg, po relative to control
# Assay type: functional
# Set-up: scale not given: the % may be the effect or the level left
# Conditions: not given
row,SMILES,Activity [%]
1,O=C(/C=C/c1ccccc1)NNCc1nc2ccc(Br)cc2c(=O)n1-c1ccccc1,10.28
2,O=C(/C=C/c1ccccc1)NN1C(=O)CC1c1nc2ccccc2c(=O)n1-c1ccccc1Cl (stereo not given),10.28
3,CC(C)c1ccc(/C=C/C(=O)NN2C(=O)CC2c2nc3ccc(Br)cc3c(=O)n2-c2cccc(Cl)c2)cc1 (stereo not given),10.28
4,COc1cc(/C=C/C(=O)NN2C(=O)CC2c2nc3ccccc3c(=O)n2-c2ccccc2Cl)ccc1O (stereo not given),10.28
5,O=c1c2cc(Br)ccc2nc(CBr)n1-c1cccc(Cl)c1,10.28
6,COc1cc(/C=C/C(=O)NNCc2nc3ccc(Br)cc3c(=O)n2-c2cccc(Cl)c2)ccc1O,10.28
7,O=c1c2cc(Br)ccc2nc(CBr)n1-c1ccccc1,10.28
8,COc1ccc(/C=C/C(=O)NNCc2nc3ccccc3c(=O)n2-c2ccccc2Cl)cc1,10.28
9,CN(C)c1ccc(/C=C/C(=O)NNCc2nc3ccccc3c(=O)n2-c2ccccc2Cl)cc1,10.28
10,NNCc1nc2ccc(Br)cc2c(=O)n1-c1cccc(Cl)c1,10.28
11,CC(C)c1ccc(/C=C/C(=O)NN2C(=O)CC2c2nc3ccccc3c(=O)n2-c2ccccc2Cl)cc1 (stereo not given),10.28
12,CC(=O)NNCc1nc2ccc(Br)cc2c(=O)n1-c1cccc(Cl)c1,10.28
13,O=C(/C=C/c1ccccc1)NN1C(=O)CC1c1nc2ccc(Br)cc2c(=O)n1-c1ccccc1 (stereo not given),10.28
14,CC(C)c1ccc(/C=C/C(=O)NN2C(=O)CC2c2nc3ccc(Br)cc3c(=O)n2-c2ccccc2)cc1 (stereo not given),10.28
15,CC(=O)NNCc1nc2ccccc2c(=O)n1-c1ccccc1Cl,10.28
16,COc1cc(/C=C/C(=O)NN2C(=O)CC2c2nc3ccccc3c(=O)n2-c2ccccc2OC)ccc1O (stereo not given),10.28
17,COc1cc(/C=C/C(=O)NNCc2nc3ccc(Br)cc3c(=O)n2-c2ccccc2)ccc1O,10.28
18,COc1ccc(/C=C/C(=O)NN2C(=O)CC2c2nc3ccc(Br)cc3c(=O)n2-c2cccc(Cl)c2)cc1 (stereo not given),10.28
19,COc1ccccc1-n1c(CNN)nc2ccccc2c1=O,10.28
20,COc1ccccc1-n1c(C2CC(=O)N2NC(=O)/C=C/c2ccc(C(C)C)cc2)nc2ccccc2c1=O (stereo not given),10.28

row,SMILES,Activity [%]
1,O=C(/C=C/c1ccccc1)NN1C(=O)CC1c1nc2ccc(Br)cc2c(=O)n1-c1cccc(Cl)c1 (stereo not given),10.28
2,COc1cc(/C=C/C(=O)NNCc2nc3ccccc3c(=O)n2-c2ccccc2Cl)ccc1O,10.28
3,O=c1c2ccccc2nc(CBr)n1-c1ccccc1Cl,10.28
4,COc1ccccc1-n1c(CNNC(=O)/C=C/c2ccc(C(C)C)cc2)nc2ccccc2c1=O,10.28
5,COc1ccc(/C=C/C(=O)NNCc2nc3ccc(Br)cc3c(=O)n2-c2cccc(Cl)c2)cc1,10.28
6,COc1ccccc1-n1c(CNNC(C)=O)nc2ccccc2c1=O,10.28
7,COc1ccc(/C=C/C(=O)NNCc2nc3ccc(Br)cc3c(=O)n2-c2ccccc2)cc1,10.28
8,COc1ccccc1-n1c(CBr)nc2ccccc2c1=O,10.28
9,NNCc1nc2ccc(Br)cc2c(=O)n1-c1ccccc1,10.28
10,COc1cc(/C=C/C(=O)NNCc2nc3ccccc3c(=O)n2-c2ccccc2OC)ccc1O,10.28
11,CC(=O)NNCc1nc2ccc(Br)cc2c(=O)n1-c1ccccc1,10.28
12,COc1ccc(/C=C/C(=O)NN2C(=O)CC2c2nc3ccccc3c(=O)n2-c2ccccc2Cl)cc1 (stereo not given),10.28
13,COc1cc(/C=C/C(=O)NN2C(=O)CC2c2nc3ccc(Br)cc3c(=O)n2-c2ccccc2)ccc1O (stereo not given),10.28
14,O=C(/C=C/c1ccccc1)NNCc1nc2ccccc2c(=O)n1-c1ccccc1Cl,10.28
15,CC(C)c1ccc(/C=C/C(=O)NNCc2nc3ccc(Br)cc3c(=O)n2-c2ccccc2)cc1,10.28
16,NNCc1nc2ccccc2c(=O)n1-c1ccccc1Cl,10.28
17,COc1cc(/C=C/C(=O)NN2C(=O)CC2c2nc3ccc(Br)cc3c(=O)n2-c2cccc(Cl)c2)ccc1O (stereo not given),10.28
18,CC(C)c1ccc(/C=C/C(=O)NNCc2nc3ccc(Br)cc3c(=O)n2-c2cccc(Cl)c2)cc1,10.28
19,O=C(/C=C/c1ccccc1)NNCc1nc2ccc(Br)cc2c(=O)n1-c1cccc(Cl)c1,10.28
20,COc1ccc(/C=C/C(=O)NN2C(=O)CC2c2nc3ccc(Br)cc3c(=O)n2-c2ccccc2)cc1 (stereo not given),10.28
